Data as given in US11484591B2, “Chemoprevention using controlled-release formulations of anti-interleukin 6 agents, synthetic vitamin A analogues or metabolites, and estradiol metabolites” (OHIO STATE INNOVATION FOUNDATION, priority 2016, dated 2022).
Entries after “also recorded” stand apart in the source; their conditions may differ.

How the values were obtained:
[1] = system: NF-κB subunits p65 and p50; assay: NF-κB subunit DNA binding and activation in OSCC cells; assay type: cell-based, human; conditions: data not shown
Experimental: Twenty four hour sera-deprived cells were treated for an additional 24 hours in sera free media with the following: 1) 0.01% DMSO (vehicle control), 2) 5 μM 4-HPR, 3) 2.5 μM 2-ME, 4) 1 μg/ml tocilizumab (TOC, […]) 5) 5 μM 4-HPR+2.5 μM 2-ME, 6) 5 μM 4-HPR+1 μg/ml TOC, 7) 2.5 μM 2-ME+1 μg/ml TOC, 8) 5 μM 4-HPR+2.5 μM 2-ME+1 μg/ml TOC. Following treatment, conditioned media were collected (ELISAs for IL-6, sIL-6R, TGF-α, VEGF, EGF, R&D Systems, Minneapolis, Minn.) and nuclear and cytosolic lysates (Nuclear Extract Kit, Active Motif, Carlsbad, Calif.) isolated for EMSAs (STAT3, NFκB p50 and p65, TransAM Transcription Factor ELISAs, Active Motif) and cytosolic and nuclear extracts for Westerns (NE-PER Nuclear and Cytoplasmic Extraction Reagents, ThermoFisher Scientific, Waltham Mass.). […]

[2] = In vitro release of 2-ME from PLGA; assay type: physicochemical; conditions: two low molecular weight acid-capped PLGA 50/50s, 10% 2-ME loading
Description: In one embodiment, 2-ME in PLGA can maximize drug loading and facilitate continuous release of the steroid over the correct time scale of release in vivo. Maximizing drug loading can provide more flexibility for dosing and increase the probability of attaining local therapeutic levels. IN one embodiment, the steroid is slowly and continuously released for >1 month in vitro from two different low molecular weight acid-capped PLGA 50/50s at 10% 2-ME loading.
2-ME with/without excipients can be combined with acid-capped PLGA 50/50 (13-24 kD) in acetone and extruded. Drug loading is typically about 10-50%. Drug loading can be determined by HPLC after dissolving implants in acetonitrile. Release kinetics in vitro can be performed in PBS+0.02% Tween 80 (PBST) at 37° C. under perfect sink conditions with HPLC detection.

SCC2095sc cells [3] = assay: IHC of OSCC xenograft tumors (Ki-67, cleaved caspase 3, involucrin); assay type: in vivo, nude mice; conditions: qualitative
Description: IHC images representative of all of the groups are presented. The PLGA implants are visible as a clear cylindrical object in every photomicrograph except the TOC and 2-ME+TOC treatment. To facilitate PLGA implant recognition, arrows have been placed within the implants. Both the Ki-67 and caspase 3 stains are located within the nucleus. Qualitative Ki67 staining assessment was most apparent at the periphery of the tumors in all groups. In contrast to the abundant Ki-67 staining, cleaved caspase 3 was not nearly as prominent.
(Image scale 4× and 10× for smaller and larger photomicrographs, respectively).
SCC2095sc cells [10^6 cells suspended in 100 μl Matrigel (Corning Life Sciences, Corning, N.Y.)] were subcutaneously injected in the flanks of 6 week old male nude mice (n=6 per treatment group). Tumor measurements were recorded daily with calipers (greatest length and greatest width) and final tumor volumes calculated via tumor volume V=(length×width)×½. Treatment groups consisted of: 1) control (PBS injections)+blank (no drug) PLGA implants, 2) 2-ME (1 μg/100 μl PBS, b.i.d.)+blank PLGA implant, 3) 4-HPR releasing PLGA implant+PBS injections, 4) TOC q.d. (0.3 μg/100 μl PBS)+PLGA blank implant, 5) 2-ME (1 μg/100 μl PBS, b.i.d.)+4-HPR releasing PLGA implant, 6) 2-ME (1 μg/100 μl PBS, b.i.d.)+TOC q.d. (0.3 μg/100 μl PBS)+blank PLGA implant, 7) TOC q.d. […]

SCC2095sc cells [4] = assay: OSCC tumor xenografts, tumor volume; assay type: in vivo, nude mice; conditions: for inhibition of established OSCC tumor growth / tumor size: discussion of xenograft study
Experimental: One million SCC2095sc cells (suspended in 100 μl Matrigel) were subcutaneously injected in flanks of 6 to 7 week old male nude mice (n=6 per treatment group). By day 14 post injection, all mice had palpable and measurable tumors. Treatment began on day 15. Caliper-based tumor measurements were recorded daily and final tumor volumes calculated via tumor volume V=(length×width)×½. Treatment groups consisted of: 1) control (PBS injections)+blank (no drug) polylactide co-glycolide (PLGA) implants, 2) 2-methoxyestradiol (2-ME) (1 μg/100 μl PBS, b.i.d.)+blank PLGA implant, 3) fenretinide (4-HPR) releasing PLGA implant+PBS injections, 4) tocilizumab (TOC) q.d. (0.3 μg/100 μl PBS)+PLGA blank implant, 5) 2-ME (1 μg/100 μl PBS, b.i.d.)+4-HPR releasing PLGA implant, 6) 2-ME (1 μg/100 μl PBS, b.i.d.)+TOC q.d. (0.3 μg/100 μl PBS)+blank PLGA implant, 7) TOC q.d. (0.3 μg/100 μl PBS)+4-HPR releasing PLGA implant, 8) 2-ME (1 μg/100 μl PBS, b.i.d.)+TOC q.d. (0.3 μg/100 μl PBS)+4-HPR releasing PLGA implant. In previous studies that employed younger mice tumors of varying sizes were disbursed among all treatment groups. Due to the older age of mice >6 weeks and the accompanying cage aggression tumor size distribution was not feasible in these studies. As a result, mean tumor volumes varied appreciably among treatment groups. PLGA implants (trocar placement) and injections were placed in the center of the tumor. Fluid dispersion throughout tumor was noted during injections. At day 28 post OSCC xenograft placement the mice were sacrificed, OSCC tumors along with lung and liver tissues and sera were harvested (for PK and histologic analyses). […] Provided the discrepancy in pretreatment tumor volumes (TOC the lowest, triple treatment second highest with its mean nearly two fold higher than TOC mean), the TOC+2-ME+4-HPR data are especially creditable.
(§1) SCC2095sc cells [10^6 cells suspended in 100 μl Matrigel (Corning Life Sciences, Corning, N.Y.)] were subcutaneously injected in the flanks of 6 week old male nude mice (n=6 per treatment group). Tumor measurements were recorded daily with calipers (greatest length and greatest width) and final tumor volumes calculated via tumor volume V=(length×width)×½. Treatment groups consisted of: 1) control (PBS injections)+blank (no drug) PLGA implants, 2) 2-ME (1 μg/100 μl PBS, b.i.d.)+blank PLGA implant, 3) 4-HPR releasing PLGA implant+PBS injections, 4) TOC q.d. (0.3 μg/100 μl PBS)+PLGA blank implant, 5) 2-ME (1 μg/100 μl PBS, b.i.d.)+4-HPR releasing PLGA implant, 6) 2-ME (1 μg/100 μl PBS, b.i.d.)+TOC q.d. (0.3 μg/100 μl PBS)+blank PLGA implant, 7) TOC q.d. (0.3 μg/100 μl PBS)+4-HPR releasing PLGA implant, 8) 2-ME (1 μg/100 μl PBS, b.i.d.)+TOC q.d. (0.3 μg/100 μl PBS)+4-HPR releasing PLGA implant. By day 14 post injection, all mice had measurable tumors and treatment began on day 15. […] Pretreatment mean tumor volumes therefore varied among treatment groups. PLGA implants (via trocar) and injections were placed in the center of the tumor. At day 28 post OSCC xenograft placement final tumor measurements were obtained, the mice were euthanized and OSCC tumors along with lung, liver and sera were harvested for pharmacokinetic, histologic and IHC analyses (Ki-67, cleaved caspase-3 and involucrin). Image analyses of the nuclear stains (Ki-67 and cleaved caspase 3) were conducted using Image-Pro Plus 6.2 software (Media Cybernetics, Rockville, Md.).

[5] = cited from earlier work
[6] = 4-HPR release from PLGA implants, tumor and sera levels (UPLC/UV); assay type: in vivo, nude mice; conditions: UPLC/UV vs calibration standard
Description: Determination of 4-HPR tumor levels entailed recording tumor wet mass, addition of internal standard (acitretin) and RIPA lysis buffer, followed by homogenization, addition of acetonitrile and centrifugation. Acetretin percent recovery was compared to a RIPA buffer/acetonitrile extraction control solution spiked with equivalent amount of acetretin and 4-HPR. Sera preparation entailed addition of acetretin and acetonitrile, sonication, followed by centrifugation.
as §1

[7] = system: EGFR, ERK1/2 and STAT3 phosphorylation; assay: Effect of receptor targeted inhibitors on OSCC signaling (immunoblot); assay type: cell-based, human; conditions: 100 nM
Experimental: The accompanying histogram depicts levels of phosphorylated […], ERK1/2 and STAT3 relative to GAPDH.
Dosing levels were determined by concurrent proliferation and viability studies in conjunction with literature values. The cells in every treatment group were then stimulated for 20 minutes with: vehicle (1 μl ddH2O), 50 ng/ml EGF, 50 ng/ml VEGF, or 50 ng/ml EGF+50 ng/ml VEGF, followed by standard immunoblotting and data normalization relative to GAPDH. […] Immunoblot images were captured (Li-Cor Odyssey imager) and analyzed (Li-Cor Image Studio, Version 4.0) to depict effects on treatment on phosphorylation relative to respective levels of GAPDH.

sIL-6R = sIL-6R release from OSCC cell lines (ELISA); assay type: cell-based, human; conditions: 5 μM 4-HPR, 2.5 μM 2-ME, 1 μg/ml TOC, 24 h
Experimental: FIGS. 5A and 5B show the evaluation of the effects of single and combination treatment of fenretinide (4-HPR, 5 μM), 2-methoxyestradiol (2-ME, 2.5 μM) and the IL-6R inhibitor TOC (1 ug/ml) on STAT3-DNA binding and on release of the stromal and tumor cell activating, trans-signaling molecule, sIL-6R. (A) Treatment effects of STAT3-DNA binding. All cell lines with constitutive pSTAT3 expression (2095sc, JSCC1, JSCC2) were sera deprived for 24 h, followed by an additional 24 hours of treatment in sera-free medium that contained: control (0.1% DMSO), 5 μM 4-HPR, 2.5 μM 2-ME, 1 μg/ml TOC (initial agent concentrations same for single and combinations). As the JSCC3 cells don't constitutively express pSTAT3, these cells underwent 24 h stimulation in base medium supplemented with 10 ng/mL of IL-6 and 5 ng/mL of TGF-α, with or without 4-HPR, 2-ME and TOC followed by harvest. […] (n=13, Kruskal Wallis ANOVA followed by Dunn's Multiple Comparison post hoc test). […] (B) Effects of treatment on cell line release of sIL-6R. All four cell lines released sIL-6R [levels ranges from ˜750 fg/10^6 (JSCC2 cells baseline) to ˜3,000 fg/10^6 cells (stimulated JSCC3 cells, baseline production JSCC3˜2,000 fg/10^6 cells). […]

HNSCC tumor = conditions: 100 μg i.p., scid mice, reference 48; cited from earlier work

Question: Which “NF-κB activation in OSCC cells” value [1] does the source give for COc1cc2c(cc1O)CC[C@@H]1[C@@H]2CC[C@]2(C)[C@@H](O)CC[C@@H]12 [2-ME, 2-Methoxyestradiol] here?
Answer: The value was “didn't inhibit”.

Question: What about the “duration of slow continuous release in vitro” value [2] of the same compound?
Answer: The value was > 1 month.

Question: And the “involucrin expression (differentiation)” value (SCC2095sc cells [3])?
Answer: Its value is “most intense expression”.

Question: What about the “tumor cell invasion and metastasis” value (SCC2095sc cells [4]; 2-ME treatment group) of the same compound?
Answer: Its value is “Lymphovascular (several mice) and perineural (single mouse) invasion”.

Question: What about the “inhibition of established OSCC tumor growth / tumor size” value (SCC2095sc cells [4]) of the same compound?
Answer: The value was “lack of 2-ME efficacy”.

Question: What about the half-life [5] of the same compound?
Answer: The half-life was ~4 h.

Question: Which “oxidized metabolite in tumor or sera samples” value [6] does the source give for CC1=C(/C=C/C(C)=C/C=C/C(C)=C/C(=O)Nc2ccc(O)cc2)C(C)(C)CCC1=O [4-oxo-4-HPR, 4-oxo-fenretinide] here?
Answer: The value was “no evidence”.

Question: With COC(=O)c1ccc2c(c1)NC(=O)/C2=C(\Nc1ccc(N(C)C(=O)CN2CCN(C)CC2)cc1)c1ccccc1 [Vargatef] as the compound, how does the “phosphorylated STAT3 despite treatment” value ([7]; JSCC1 and JSCC2 cells) read?
Answer: Its value is “high to moderate levels of phosphorylated STAT3 persisted; also recorded: pSTAT3 persisted”.

Question: What about the “phosphorylation at the EGFR, ERK1/2 and STAT3 levels” value ([7]; JSCC3 cells, 1 h pretreatment, EGF/VEGF stimulation) of the same compound?
Answer: The value was “reduced phosphorylation; also recorded: blocked STAT3 phosphorylation”.

Question: What does the source list for “TOC: humanized monoclonal antibody to the IL-6R receptor tocilizumab”?
Answer: sIL-6R release (sIL-6R): significantly reduced; sIL-6R release (sIL-6R; listed as tocilizumab): significantly inhibited; HNSCC tumor initiation (HNSCC tumor): significantly reduced HNSCC tumor initiation; established tumor growth (HNSCC tumor): didn't significantly inhibit established tumor growth; mean tumor fold size increase (SCC2095sc cells [4]; day 15 to day 28, intratumoral treatment): 2.13 fold; inhibition of established OSCC tumor growth / tumor size (SCC2095sc cells [4]): significantly inhibited OSCC tumor growth; increase in tumor volume over 14 days (SCC2095sc cells [4]; intratumoral, TOC 0.3 μg q.d., 2-ME 1 μg b.i.d., 4-HPR PLGA implant, paired t test): prevented a significant increase in tumor volume; half-life [5]: ~19 h
